Reference: ChEMBL document CHEMBL1201862, “PubChem BioAssay data set” (2004)
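Five concentrations, 48 hours, 96-well plates. GI50 marks 50% less growth.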 Active and inactive are the calls of the source. Rule as the data show it: active = GI50 up to about 1.1 µM and inactive = higher.

Key:
Assay in all cases: NCI-60 cell line screen, 48 h
UACC-62 = test system: UACC-62
MDA-N = test system: MDA-N
DU-145 = test system: DU-145
NCI-H460 = test system: NCI-H460
HCT-15 = test system: HCT-15
U-251 = test system: U-251
OVCAR-3 = test system: OVCAR-3
EKVX = test system: EKVX
OVCAR-8 = test system: OVCAR-8
CCRF-CEM = test system: CCRF-CEM
SF-295 = test system: SF-295
SF-539 = test system: SF-539
OVCAR-4 = test system: OVCAR-4
UACC-257 = test system: UACC-257
K562 = test system: K562
SK-OV-3 = test system: SK-OV-3
COLO 205 = test system: COLO 205
LOX IMVI = test system: LOX IMVI
SR = test system: SR
Hs-578T = test system: Hs-578T

Compound	GI50 (UACC-62)	GI50 (MDA-N)	GI50 (DU-145)	GI50 (NCI-H460)	GI50 (HCT-15) [µM]	GI50 (U-251)	GI50 (OVCAR-3)	GI50 (EKVX)	GI50 (OVCAR-8)	GI50 (CCRF-CEM)	GI50 (SF-295)	GI50 (SF-539)	GI50 (OVCAR-4)	GI50 (UACC-257)	GI50 (K562)	GI50 (SK-OV-3)	GI50 (COLO 205)	GI50 (LOX IMVI)	GI50 (SR)	GI50 (Hs-578T)
NC(=O)CN1C=CCC(C(N)=O)=C1 [CARICOTAMIDE]	> 100 µM (inactive)	> 100 µM (inactive)	> 100 µM (inactive)	> 100 µM (inactive)	> 100	> 100 µM (inactive)	> 100 µM (inactive)	> 100 µM (inactive)	> 100 µM (inactive)	> 100 µM (inactive)	> 100 µM (inactive)	> 100 µM (inactive)	> 100 µM (inactive)	> 100 µM (inactive)	> 100 µM (inactive)	> 100 µM (inactive)	> 100 µM (inactive)	> 100 µM (inactive)	–	–
COc1ccc(/C=C/C(=O)C(C)C)cc1	45 µM (inactive)	–	–	26.8 µM (inactive)	27.2	34.1 µM (inactive)	25.9 µM (inactive)	45.3 µM (inactive)	34.8 µM (inactive)	35.9 µM (inactive)	31.6 µM (inactive)	46.2 µM (inactive)	47.9 µM (inactive)	63.7 µM (inactive)	32.8 µM (inactive)	31 µM (inactive)	40 µM (inactive)	32.9 µM (inactive)	25.2 µM (inactive)	–
COC1=C2C[C@@H](C)C[C@@H](OC)[C@@H](O)[C@H](C)/C=C(\C)[C@@H](OC(N)=O)[C@H](OC)/C=C\C=C(/C)C(=O)NC(=CC1=O)C2=O	0.122 µM (active)	0.0216 µM (active)	0.106 µM (active)	1.49 µM (inactive)	0.265	2.93 µM (inactive)	0.213 µM (active)	6.56 µM (inactive)	0.0614 µM (active)	0.0282 µM (active)	9.38 µM (inactive)	0.132 µM (active)	–	0.0769 µM (active)	0.0115 µM (active)	1.04 µM (active)	0.0116 µM (active)	–	–	–
CC(=O)CC(=O)/C=C/c1cccs1	44.6 µM (inactive)	–	–	64.1 µM (inactive)	47.8	> 100 µM (inactive)	> 100 µM (inactive)	> 100 µM (inactive)	> 100 µM (inactive)	38.5 µM (inactive)	> 100 µM (inactive)	31.6 µM (inactive)	87.5 µM (inactive)	> 100 µM (inactive)	47.1 µM (inactive)	> 100 µM (inactive)	> 100 µM (inactive)	55.2 µM (inactive)	48.1 µM (inactive)	–
CC(=O)NC1=C(C)C(=O)c2c(nc3n2CCC3O)C1=N (stereo not given)	4.71 µM (inactive)	–	–	22 µM (inactive)	19.2	13.2 µM (inactive)	2.98 µM (inactive)	21.1 µM (inactive)	4.55 µM (inactive)	2.93 µM (inactive)	19.3 µM (inactive)	4.15 µM (inactive)	4.09 µM (inactive)	3.9 µM (inactive)	8.67 µM (inactive)	28.2 µM (inactive)	18.9 µM (inactive)	5.85 µM (inactive)	> 100 µM (inactive)	–
Oc1cc(-c2ccc3ccccc3c2)nc2ncccc12	5.41 µM (inactive)	–	19.9 µM (inactive)	–	4.18	–	–	33.2 µM (inactive)	23 µM (inactive)	7.64 µM (inactive)	–	6.95 µM (inactive)	12.1 µM (inactive)	12.4 µM (inactive)	2.7 µM (inactive)	19.6 µM (inactive)	4.05 µM (inactive)	9.93 µM (inactive)	2.14 µM (inactive)	9.35 µM (inactive)
Cc1nc(C(N)=S)sc1C(=O)CC(=O)C(=O)Nc1c(C(C)C)cccc1C(C)C	42.5 µM (inactive)	–	–	40.5 µM (inactive)	32.6	36.6 µM (inactive)	18.3 µM (inactive)	> 100 µM (inactive)	36 µM (inactive)	44.7 µM (inactive)	29.2 µM (inactive)	44.4 µM (inactive)	> 100 µM (inactive)	60.4 µM (inactive)	24.3 µM (inactive)	36 µM (inactive)	43.3 µM (inactive)	49.3 µM (inactive)	26.4 µM (inactive)	–
CC1CCC(=O)C(C(=O)CC2CC(=O)N(C)C(=O)C2)C1 (stereo not given)	> 100 µM (inactive)	–	> 100 µM (inactive)	> 100 µM (inactive)	> 100	> 100 µM (inactive)	> 100 µM (inactive)	> 100 µM (inactive)	> 100 µM (inactive)	> 100 µM (inactive)	> 100 µM (inactive)	> 100 µM (inactive)	> 100 µM (inactive)	> 100 µM (inactive)	> 100 µM (inactive)	> 100 µM (inactive)	> 100 µM (inactive)	> 100 µM (inactive)	–	> 100 µM (inactive)
